Assay results taken from EP1707568A2, “A pharmaceutical composition for use in the treatment of ovarian cancer in a human afflicted therewith” (SMITHKLINE BEECHAM CORPORATION, priority 1991, dated 1992).
Like-named read-outs stand apart in the source and are kept apart here.

Legend:
[1] = Stability of reconstituted topotecan solution further diluted in D5W or NS in plastic bags at room temperature; type: physicochemical; conditions: for Percentage of Initial Topotecan Remaining in Solution: 0 hrs; for remaining at 6 h / remaining at 24 h / remaining at 48 h: read-out: Percentage of Initial Topotecan Remaining in Solution
Description: Topotecan is currently undergoing Phase I clinical investigation. The following pharmaceutical information is being supplied to the clinicians: • How supplied - As a vial containing 5 mg (of the base) with 100 mg mannitol. The pH is adjusted to 3.0 with HCl/NaOH. Lyophilized powder is light yellow in color. Intact vials should be stored under refrigeration (2-8 degrees Centigrade). • Solution Preparation -When the 5 mg vial is reconstituted with 2 ml of Sterile Water for Injection, USP, each ml will contain 2.5 mg of topotecan as the base and 50 mg of mannitol, USP. Topotecan must not be diluted or mixed with buffered solutions because of solubility and stability considerations. • Stability - Shelf life surveillance of the intact vials is ongoing. Because the single-use lyophilized dosage form contains no antibacterial preservatives, it is advised that the reconstituted solution be discarded eight hours after initial entry into the vial. Futher dilutions of the reconstituted solution to concentrations of 0.02 mg/ml and 0.1 mg/ml in 5% Dextrose Injection, USP, ("D5W") or 0.9% Sodium Chloride Injection, USP, ("NS") in plastic bags stored at room temperature yielded the following stability results:
Percentage of Initial Topotecan Remaining in Solution

[2] = Hang-bag stability of topotecan diluted in saline or dextrose; type: physicochemical; conditions: read-out: recovery
Description: Topotecan diluted in saline (10 ug/ml or 500 ug/ml) or dextrose (6.7 ug/ml or 330 ug/ml) is stable in a hang-bag for 24 hours with at least 95% recovery.

[3] = system: ovarian cancer; test: Clinical treatment of a platinum-refractory ovarian cancer patient, tumor size evaluated by CAT scan; type: in vivo; conditions: one human patient, intravenous 1.5 mg/m^2 per day for five consecutive days
Description: One human patient with ovarian cancer, who was refractory to two previous platinum-containing regimens (i.e., cisplatin-cyclophosphamide combination regimen and treatment with single agent carboplatin), received a course of therapy comprising intravenous administration of 1.5 mg of topotecan/m^2 of body surface area per day for five consecutive days. This course of therapy was repeated […] nine more times to date at twenty-one day intervals (from the date of initiation of therapy) for a total of ten treatments. Tumor size regression was evaluated by CAT (computerized axial tomography) scan. […] At least until the tenth treatment, this clinically significant response was sustained, i.e., a greater than fifty percent (50%) tumor size regression was obtained.

In the case of `CC[C@@]1(O)C(=O)OCc2c1cc1n(c2=O)Cc2cc3c(CN(C)C)c(O)ccc3nc2-1` [Topotecan, (S)-9-dimethylaminomethyl-10-hydroxycamptothecin], the “Percentage of Initial Topotecan Remaining in Solution” value ([1]; D5W, 0.02 mg/ml) is reported as 100.00%, the “Percentage of Initial Topotecan Remaining in Solution” value ([1]; D5W, 0.1 mg/ml) is reported as 100.00% and the “Percentage of Initial Topotecan Remaining in Solution” value ([1]; NS, 0.02 mg/ml) is reported as 100.00%. For the same compound, the “Percentage of Initial Topotecan Remaining in Solution” value ([1]; NS, 0.1 mg/ml) was 100.00%, the remaining at 6 h ([1]; d5w, 0.02 mg/ml) was 99.3% and the remaining at 6 h ([1]; d5w, 0.1 mg/ml) was 99.7%. It also gave a remaining at 24 h ([1]; d5w, 0.02 mg/ml) of 102%, a remaining at 24 h ([1]; d5w, 0.1 mg/ml) of 98.2% and a remaining at 48 h ([1]; d5w, 0.02 mg/ml) of 102%. The remaining at 48 h ([1]; d5w, 0.1 mg/ml) was 97.9%, the remaining at 6 h ([1]; ns, 0.02 mg/ml) was 98.6% and the remaining at 6 h ([1]; ns, 0.1 mg/ml) was 97.7%. The remaining at 24 h ([1]; ns, 0.02 mg/ml) was 96%, the remaining at 24 h ([1]; ns, 0.1 mg/ml) was 98.3% and the remaining at 48 h ([1]; ns, 0.02 mg/ml) was 102%. For the same compound, the remaining at 48 h ([1]; ns, 0.1 mg/ml) was 98.3%, the remaining at 24 h ([2]; dextrose, 6.7 ug/ml) was ≥ 95% and the remaining at 24 h ([2]; saline, 10 ug/ml) was ≥ 95%. The Tumor size regression ([3]; following four courses) was “An even greater response was observed”, the Tumor size regression ([3]; following two courses of therapy) was “Tumor size regression was observed” and the Tumor size regression ([3]; sustained at least until the tenth treatment) was > 50%.
